EP4345091A1, “BENZOIC ACID DERIVATIVES, METHODS AND USES THEREOF” (priority 2022, dated 2024)
In brackets after ≈: the same amount, converted by molar mass. Read-outs that look alike come from different tables or passages of the source.

Legend:
[1] = tested on: Mycobacterium smegmatis homogenate; test: Stability in Mycobacterium smegmatis homogenate (enzymatic hydrolysis); details: Mycobacterium smegmatis homogenate, 37°C
[2] = Stability in human plasma (enzymatic hydrolysis)
Method: The studies of stability in human plasma were performed in human plasma diluted to 80% with phosphate buffer pH 7.4 of total concentration 0.05 M and ionic strength 0.15 M at 37°C. […] Study of enzymatic hydrolysis. […] Initial substrate concentration (ester) - 5×10^-4M with 2% ACN.
Pooled human plasma (960 µL), pH 7.4 phosphate buffered saline (216 µL), 18 µL ACN and 6 µL of a 10-1 M stock solution of the prodrug in ACN were mixed in a 2mL vial. The suspensions were incubated at 37 °C and 50 µL aliquots were removed, mixed with 450 µL of ACN: ZnSO4 1% 1:1 and centrifuged. The supernatant was removed and analysed by HPLC, the remaining substrate and the correspondent acid measured.
Two HPLC systems were used. The buffer and plasma stability studies were performed in an HPLC system with a photodiode detector L-3000 Photo Diode Array Detector, Merck-Hitachi L-6000 pump, Merck-Hitachi D-2500 integrator, and Merck RP-8 column. […] The eluant was a mixture of acetonitrile (60%/70%) and aqueous phosphate buffer with 5% of KH2PO4/H3PO4 0.025M (40%/30%). The flow rate was always 1 mL/1 min and wavelength was set at 230 nm. All quantifications were evaluated using calibration curves from stock solutions.
The initial substrate concentration was 5 x 10^-4 M in all stability assays. All incubations were carried out at pH 7.4 and 37 °C under agitation using the phosphate buffer described above as diluting agent. […] Acetonitrile (2%) was used in all studies to ensure adequate solubilization of the substrates. The benzoates were added from 10 to 1M acetonitrile stock solutions. After incubation, aliquots of 50 µL were taken into vials containing 450 µL of a 1:1 solution of 1% zinc sulfate and acetonitrile, mixed in a vortex and centrifuged for 10 min at 15,000 rpm. The supernatant was then injected into the HPLC and analysed for quantification of benzoic acid and remaining benzoate. All quantifications were performed using calibration curves.

[3] = Chemical stability in phosphate buffer pH 7.4
[4] = tested on: Mycobacterium tuberculosis H37Rv; test: MIC and MBC by broth microdilution against M. tuberculosis H37Rv; format: cell-based, Mycobacterium tuberculosis H37Rv (ATCC 27294); details: Mycobacterium tuberculosis, H37RV
[5] = tested on: Mycobacterium Bovis BCG infecting human macrophages THP-1; format: cell-based
[6] = Cytotoxicity assay in THP-1 cells; format: cell-based, human; details: human, THP-1 cells, read-out: LC50 (the source's name)
Excerpt: (§1) Cytotoxicity results were obtained through lethal concentration for 50% of the cell population, LC50. Table 6. Results obtained from cytotoxicity assays for the esters, represented by LD50 in µg/mL and comparison with MIC values, in µg/mL with toxicity/activity (T/A) index.
(§2) The T/A index quantitatively is the ratio between the lethal concentration (LC50) given by the minimum inhibitory concentration (MIC).

[7] = tested on: human monocytic cell line THP-1 (ATCC56 TIB202); test: Cytotoxicity assay in THP-1 cells; format: cell-based; details: toxicity/activity index: ratio LC50 (THP-1) / MIC (M. tuberculosis H37Rv)
Excerpt: as §1, §2

[8] = Time 0 days, compound concentration 2 µg/ml
[9] = Time 1 day, compound concentration 2 µg/ml
[10] = Time 3 days, compound concentration 2 µg/ml
[11] = Time 7 days, compound concentration 2 µg/ml
[12] = THP-1 monocytic cells, n/d (no toxicity at maximum tested dose)
[13] = n/d (no toxicity at maximum tested dose)
[14] = M. tuberculosis H37Rv, Table 3, read-out: MBC
[15] = M. tuberculosis H37Rv, Tables 3, 6 and 7, read-out: MIC
[16] = THP-1 monocytic cells, lethal concentration for 50% of the cell population

Row | Compound | Degradation (%) 24h [1] | Degradation (%) 48h [1] | Degradation (%) 24h [2] | Degradation (%) 48h [2] | Degradation (%) 72h [2] | Degradation (%) 24h [3] | Degradation (%) 48h [3] | Degradation (%) 72h [3] | Degradation (%) 168h [3] | Degradation (%) 332h [3] | MBC [4, 14] | MIC [4, 15] | T/A [7] | CC50 [6, 16] | other results
1 | CCCCCCCCOC(=O)c1cc([N+](=O)[O-])cc([N+](=O)[O-])c1 [Compound 3c] | 10% | 19% | 57% | 81% | 92% | 0% | 0% | 1% | 2% | 3% | – | – | – | – | MBC [4]: 8 µg/mL (≈ 24.7 µM); MIC [4]: 8 µg/mL (≈ 24.7 µM)
2 | CCCCCCCCCCOC(=O)c1cc([N+](=O)[O-])cc([N+](=O)[O-])c1 [Compound 3d, Decyl 3,5-dinitrobenzoate] | 5% | 9% | 18% | 32% | 44% | – | – | – | – | – | – | – | – | – | CFU x10^4 [5, 8]: 9.2 CFUs per mL; CFU x10^4 [5, 9]: 12.5 CFUs per mL; CFU x10^4 [5, 10]: 12.5 CFUs per mL; CFU x10^4 [5, 11]: 8.5 CFUs per mL; CC50 [6, 12]: > 512 µg/mL; MBC [4]: 4 µg/mL (≈ 11.4 µM); MIC [4]: 4 µg/mL (≈ 11.4 µM)
3 | CCCCCCCCCCCCOC(=O)c1cc([N+](=O)[O-])cc([N+](=O)[O-])c1 [Compound 3e] | 4% | 8% | 29% | 50% | 65% | 0% | 0% | 1% | 1% | 2% | – | – | – | – | CC50 [6, 13]: > 512 µg/mL; MBC [4]: 16 µg/mL (≈ 42.1 µM); MIC [4]: 8 µg/mL (≈ 21 µM)
4 | CCCCCCCCCCCCCCOC(=O)c1cc([N+](=O)[O-])cc([N+](=O)[O-])c1 [Compound 3f] | 3% | 6% | 23% | 51% | 65% | – | – | – | – | – | – | – | – | – | CFU x10^4 [5, 8]: 9.2 CFUs per mL; CFU x10^4 [5, 9]: 12.16 CFUs per mL; CFU x10^4 [5, 10]: 13.66 CFUs per mL; CFU x10^4 [5, 11]: 7.25 CFUs per mL; CC50 [6, 13]: > 512 µg/mL; MBC [4]: > 1020 µg/mL; MIC [4]: 16 µg/mL (≈ 39.2 µM)
5 | CCCCCCCCCCCCCCCCOC(=O)c1cc([N+](=O)[O-])cc([N+](=O)[O-])c1 [Compound 3g, Hexadecyl 3,5-dinitrobenzoate] | 2% | 4% | 1% | 3% | 4% | – | – | – | – | – | – | – | – | – | CC50 [6, 12]: > 512 µg/mL; MBC [4]: > 1020 µg/mL; MIC [4]: > 1020 µg/mL
6 | CCCCCCCCOC(=O)c1cc([N+](=O)[O-])cc(C(F)(F)F)c1 [Compound 4c, Octyl 3-nitro-5-(trifluoromethyl)benzoate] | 8% | 16% | 42% | 67% | 81% | 0% | 1% | 1% | 3% | 6% | – | – | – | – | –
7 | CCCCCCCCCCOC(=O)c1cc([N+](=O)[O-])cc(C(F)(F)F)c1 [Compound 4d, Decyl 3-nitro-5-(trifluoromethyl)benzoate] | 5% | 10% | 26% | 45% | 60% | – | – | – | – | – | 256 µg/mL (≈ 682 µM) | 128 µg/mL (≈ 341 µM) | – | – | CC50 [6, 12]: > 512 µg/mL
8 | CCCCCCCCCCCCOC(=O)c1cc([N+](=O)[O-])cc(C(F)(F)F)c1 [Compound 4e, Dodecyl 3-nitro-5-(trifluoromethyl)benzoate] | 3% | 6% | 1% | 2% | 3% | 1% | 2% | 3% | 6% | 11% | > 1020 µg/mL | > 1020 µg/mL | – | – | CC50 [6, 12]: > 512 µg/mL
9 | CCCCNC(=O)c1ccccc1 [Compound 5a, N-butyl-benzamide] | 2% | 3% | 0% | 0% | 0% | 0% | 0% | 0% | 0% | 0% | 256 µg/mL (≈ 1440 µM) | 256 µg/mL (≈ 1440 µM) | – | – | –
10 | CCCCCCNC(=O)c1ccccc1 [Compound 5b, N-hexyl-benzamide] | 1% | 2% | – | – | – | – | – | – | – | – | 64 µg/mL (≈ 312 µM) | 64 µg/mL (≈ 312 µM) | – | – | –
11 | CCCCCCCCNC(=O)c1ccccc1 [Compound 5c, N-octyl-benzamide] | 1% | 2% | 0% | 0% | 0% | 0% | 0% | 0% | 0% | 0% | 32 µg/mL (≈ 137 µM) | 32 µg/mL (≈ 137 µM) | 6 | 188 µg/mL (≈ 806 µM) | –
12 | CCCCCCCCCCCCNC(=O)c1ccccc1 [Compound 5e, N-dodecyl-benzamide] | 0% | 0% | 0% | 0% | 0% | 0% | 0% | 0% | 0% | 0% | > 256 µg/mL | > 256 µg/mL | – | – | –
13 | CCCCCCCCNC(=O)c1ccc([N+](=O)[O-])cc1 [Compound 6c, N-octyl-4-nitrobenzamide] | 3% | 5% | 0% | 0% | 1% | 0% | 0% | 0% | 0% | 0% | 256 µg/mL (≈ 920 µM) | 128 µg/mL (≈ 460 µM) | 2 | 308 µg/mL (≈ 1110 µM) | –
14 | CCCCCCCCCCCCNC(=O)c1ccc([N+](=O)[O-])cc1 [Compound 6e, N-dodecyl-4-nitrobenzamide] | 2% | 3% | 0% | 0% | 1% | 0% | 0% | 0% | 0% | 0% | 256 µg/mL (≈ 765 µM) | 256 µg/mL (≈ 765 µM) | – | – | –
15 | CCCCCCNC(=O)c1cc([N+](=O)[O-])cc(C(F)(F)F)c1 [Compound 8b, N-hexyl-3-nitro-5-(trifluoromethyl)-benzamide] | 7% | 14% | – | – | – | – | – | – | – | – | ≤ 0.5 µg/mL | ≤ 0.5 µg/mL | 46 | 23 µg/mL (≈ 72.3 µM) | –
16 | CCCCCCCCNC(=O)c1cc([N+](=O)[O-])cc(C(F)(F)F)c1 [Compound 8c, N-octyl-3-nitro-5-(trifluoromethyl)-benzamide] | 5% | 11% | 0% | 0% | 0% | 0% | 0% | 0% | 0% | 0% | 0.063 µg/mL (≈ 0.182 µM) | 0.063 µg/mL (≈ 0.182 µM) | 222 | 14 µg/mL (≈ 40.4 µM) | –
17 | CCCCCCCCCCNC(=O)c1cc([N+](=O)[O-])cc(C(F)(F)F)c1 [Compound 8d, N-decyl-3-nitro-5-(trifluoromethyl)-benzamide] | 2% | 3% | – | – | – | – | – | – | – | – | 0.5 µg/mL (≈ 1.34 µM) | 0.5 µg/mL (≈ 1.34 µM) | 106 | 53 µg/mL (≈ 142 µM) | –
18 | CCCCCCCCCCCCNC(=O)c1cc([N+](=O)[O-])cc(C(F)(F)F)c1 [Compound 8e, N-dodecyl-3-nitro-5-(trifluoromethyl)-benzamide] | 1% | 3% | 0% | 0% | 0% | 0% | 0% | 0% | 0% | 0% | 0.5 µg/mL (≈ 1.24 µM) | 0.5 µg/mL (≈ 1.24 µM) | 226 | 113 µg/mL (≈ 281 µM) | –
19 | NNC(=O)c1ccncc1 [INH, isoniazid, reference compound] | – | – | – | – | – | – | – | – | – | – | 0.05 µg/mL (≈ 0.365 µM) | 0.025 µg/mL (≈ 0.182 µM) | – | – | CFU x10^4 ([5]; Time 0 days, concentration 0.1 µg/ml): 9.2 CFUs per mL; CFU x10^4 ([5]; Time 1 day, concentration 0.1 µg/ml): 9.91 CFUs per mL; CFU x10^4 ([5]; Time 3 days, concentration 0.1 µg/ml): 1.33 CFUs per mL; CFU x10^4 ([5]; Time 7 days, concentration 0.1 µg/ml): 0.24 CFUs per mL
